Results as given in patent US9731001B2, “Three-dimensional cavities of dendritic cell immunoreceptor (DCIR), compounds binding thereto and therapeutic applications related to inhibition of human immunodeficiency virus type-1 (HIV-1)” (priority 2011, dated 2017).

How the values were obtained:
HIV-1 (NL4-3BalEnv) [1] = assay: HIV replication in polarized Th17 CD4T cells (p24); assay type: cell-based; conditions: 10 μM, 3, 7 and 10 days of incubation
Protocol: (§1) FIGS. 13A and 13B are a bar graphs showing impact of the DCIR-EPS inhibitor (Cpd B2) on HIV replication by activated Th17 polarized CD4T cells, according to Example 8. Polarized CD4 Th17 cells (FIG. 13A) and PHA/IL-2 activated CD4T cells (FIG. 13B) were either untreated or treated with 10 μM of DCIR-EPS inhibitor (Cpd B2) for 10 min at 37° C. Cells were then exposed to NL4-3BalEnv for 2 hrs. After three washes with PBS to remove non-adsorbed virus, cells were cultured during 10 days. Viral replication was quantified by measuring the HIV-p24 content in culture supernatants. Data represent means±SD of triplicate samples from the same patient. Asterisks denote statistically significant differences (**, P<0.01), (*, P<0.05).
(§2) It was assessed whether the DCIR inhibitor (Compound B2) could reduce viral production. Polarized Th17 CD4T cells (FIG. 13A) and PHA/IL-2 activated CD4T cells (FIG. 13B) were pretreated or not with DCIR inhibitor (Cpd B2) before being put into contact with NL4-3BalEnv. Cells were washed and incubated for 10 days and then p24 content was measured. […] Prevention of Th17 infection could be contributed to maintain an adequate intestinal homeostasis.

Th17 CD4 T cells = assay: Apoptosis (Z-Vad-FMK FITC), Th17 CD4 T cells; assay type: cell-based, human; conditions: 10 uM, 24 hrs
Protocol: (§3) FIGS. 14A-14F are a bar graphs showing the impact of the DCIR-EPS inhibitor (Cpd B2) on viability and apoptosis of TH17 polarized CD4 T cells or PHA-L/activated CD4T cells according to Example 8. Polarized CD4 TH17 cells (left panels) or PHA-L/IL-2 activated CD4 T cells (right panels) were either untreated or treated with 10 μM of DCIR-EPS inhibitor for 10 min at 37° C. Cells were then contacted with NL4-3BalEnv for 2 hrs and washed three times with PBS to remove non-adsorbed virus. Cells were then incubated for 10 days and toxicity was measured using the MTT assay (upper panels). In parallel, cells were incubated for 24 hrs and stained with Z-Vad-FMK FITC Abs to measure apoptosis) (middle panels) or with DCIR Abs lower panels).
(§4) After observing the inhibition of p24 content in Th17 cells by the DCIR inhibitor (Cpd B2), the impact of the DCIR inhibitor on cell viability and apoptosis was determined (FIG. 14). Polarized CD4 Th17 cells (FIG. 14A, 14C, 14E) or PHA-L/IL-2 CD4T cells (FIGS. 14B, 14D, 14F) were either untreated (DMSO) or treated with 10 uM of DCIR inhibitor for 10 minutes at 37° C. and then incubated with NL4-3BalEnv or mock virus for 2 hours. […] DCIR expression on Th17 CD4 T cells and PHA-L/IL-2 activated CD4 T cells was measured with or without treatment with the DCIR inhibitor (FIGS. 14E, 14F). […]

DCIR [2] = assay: DCIR expression on PHA-L/IL-2 activated CD4 T cells; assay type: cell-based, human; conditions: 10 uM
Protocol: as §3, §4

HIV-1 (NL4-3BalEnv) [3] = assay: HIV replication in PHA/IL-2 activated CD4T cells (p24); assay type: cell-based; conditions: 10 μM
Protocol: as §1, §2

Polarized CD4 Th17 cells = assay: Toxicity by MTT assay, polarized CD4 Th17 cells; assay type: cell-based, human; conditions: Th17 CD4T cells; 10 uM; 10 days
Protocol: as §3, §4

[4] = tested on: PHA-L/IL-2 activated CD4 T cells; assay: Toxicity by MTT assay, PHA-L/IL-2 activated CD4 T cells; assay type: cell-based, human; conditions: 10 uM, 10 days
Protocol: as §3, §4

PHA-L/IL-2 CD4 T cells = assay: Apoptosis (Z-Vad-FMK FITC), PHA-L/IL-2 CD4 T cells; assay type: cell-based, human; conditions: 10 uM, 24 hrs
Protocol: as §3, §4

DCIR [5] = assay: DCIR expression on Th17 CD4 T cells; assay type: cell-based, human; conditions: 10 uM
Protocol: as §3, §4

HIV-1 (NL4-3) = assay: HIV-1 binding/entry on H2O2-treated (apoptotic) CD4TL (p24); assay type: cell-based; conditions: CD4TL treated with 30 μM H2O2 16 h; NL4-3 1 h; FIG. 8 panel A
Protocol: FIGS. 8A and 8B are bar graphs showing the impact of DCIR inhibitors on HIV-1 transmission by apoptotic CD4^+ T cells. Target CD4^+ T cells (1×10^6) were treated for 16 h with H2O2 (30 μM) to induce the surface expression of DCIR. Cells were treated with site A inhibitors (1 and 4) or site B inhibitors (1 and 2) or vehicle (DMSO). Panel A: Cells were next exposed to NL4-3 (100 ng/ml of p24) for 1 h at 37° C., extensively washed to remove unadsorbed virions before assessing p24 content. Panel B: Cells were first incubated with NL4-3 (100 ng/ml of p24) for 2 h at 37° C., washed extensively to remove unadsorbed virions and cultured in complete RPMI-1640 supplemented with rhIL-2 for the time indicated. Cell-free supernatants were then collected and assayed for p24 content. Data shown correspond to the means±sem of 3 independent experiments performed in triplicate for panel A and the means±SEM of 2 independent experiments for panel B. The asterisks denotes statistically significant data (*, P<0.05; **, P<0.01; ***, P<0.001).
Apoptosis was induced in CD4TL activated with 30 μM H2O2 for 16 h before performing the following experimental procedures. To assay binding/entry, cells (1×10^6) were incubated for 60 min at 37° C. with NL4-3 (100 ng of p24). After three extensive washes with PBS to remove un-adsorbed virus, HIV-1 binding was quantified by estimating p24 content. […]

Structure (SMILES) | p24 content (HIV-1 (NL4-3BalEnv) [1]) | apoptosis (Th17 CD4 T cells) | DCIR expression (DCIR [2]) | p24 content (HIV-1 (NL4-3BalEnv) [3]; after 3 and 7 days) | p24 content (HIV-1 (NL4-3BalEnv) [3]; after 10 days) | toxic effect (MTT assay) (Polarized CD4 Th17 cells) | toxic effect (MTT assay) [4] | apoptosis (PHA-L/IL-2 CD4 T cells) | DCIR expression (DCIR [5]) | decrease of HIV-1 attachment to H2O2 treated cells (HIV-1 (NL4-3))
Cc1ccc(/N=[N+](\[O-])c2ccc(C)cc2)cc1 [Compound B2, 1-methyl-4-[(4-methylphenyl)-NNO-azoxy]benzene] | significantly reduced p24 content | did not have any impact on apoptosis | marked reduction in DCIR expression | non-significant trend for reduction | significant reduction | did not have a toxic effect | did not have a toxic effect | underwent less apoptosis | no difference in DCIR expression | –
O=C(/C=C/C=C/c1ccccc1)c1ccccc1 [Compound A1, 1,5-diphenyl-2,4-pentadien-1-one] | – | – | – | – | – | – | – | – | – | about 50%
O=C(c1ccccc1)c1cc2ccccc2o1 [Compound B1, 1-benzofuran-2-yl(phenyl)methanone] | – | – | – | – | – | – | – | – | – | ~40%
